{"source": "patent US20210251228A1", "about": "“METHODS FOR REPELLING DROSOPHILA SPECIES USING 2-PENTYLFURAN” (The United States of America, as represented by the …, priority 2020, published 2021)", "system": "Drosophila suzukii", "assay": "Field test 1: unknown release rate of 2-pentylfuran, SWD oviposition on field raspberries", "format": "in vivo", "conditions": "0.5 ml 50% 2-pentylfuran in mineral oil in vial, 3 days, N=16", "protocol": "Field Test 1: Effect of Unknown Release Rate of 2-Pentylfuran on SWD Oviposition. The objective of this field test was to confirm the repellent activity of 2-pentylfuran under field conditions. This experiment was conducted using a mixed variety planting of fall-bearing raspberries (primocane raspberries) at Cornell AgriTech in Geneva, N.Y. where we randomly assigned 32 fruiting clusters to one of two treatments: 1.5 ml centrifuge vial with 3 mm hole in lid and containing 0.5 ml 50% 2-pentylfuran in 1:1 ratio with mineral oil or vial with mineral oil only (similar to Wallingford et al. 2016a). After three days we collected ripe raspberries from each cluster and monitored SWD emergence over the 2 weeks in the laboratory (25 C, 55% RH, 16:8 L:D).\nStatistical Analyses: Trap catch data from multiple-choice assay and two-choice assay were analyzed in a randomized block design with block as a random factor and different EAD-active compounds as a fixed factor using Poisson distribution with log link function and maximum likelihood estimation (Proc Glimmix, SAS Institute, SAS/STAT 9.2 User's Guide, Second Edition, 2009, SAS Institute Inc., Cary, N.C.). […]", "data": [{"smiles": "CCCCCc1ccco1", "note": "[2-pentylfuran]", "values": [{"measurement": "reduction of number of eggs per raspberry fruit", "value": 30, "unit": "%"}]}]}
